The values that follow are results of earlier work, collected in patent US6627208B2, “Biocidal material with improved activity” (Eastman Kodak Company, priority 1999, dated 2003).

Values after ≈ are worked out from the molar mass of the structure shown.

The conditions of this data set: limit of solubility.

With `CCCCCCCCn1sc(Cl)c(Cl)c1=O` [Kathon 287T®], the solubility in water is 5 µg/mL (≈ 17.7 µM).
